Test results published in PubChem BioAssay AID1963846 (Molecular Pharmacology Branch, DTP, NCI, 2024).

Test system: 454973-116-R2-J3-PDC complex spheroid viability
Assay: Anticancer human tumor 454973-116-R2-J3-PDC patient-derived pancreatic carcinoma cell line growth inhibition [POLQ]
Details: for IC50: curve of first compound; for viability, T/C: stronger effect = lower value
Procedure: Multicellular complex tumor spheroid response to Polymerase (POL) inhibitors (novobiocin, ART-558, RP6685) in combination with a variety of drugs and investigational agents in selected tumor cell lines
The POL inhibitors (novobiocin, ART-558, and RP6685) were evaluated both individually and in combination with standard of care and investigational anticancer small molecules within a complex spheroid model of solid tumors. . Complex spheroids include a stromal component modeled by human endothelial cells (HUVEC) and fibroblasts modeled by human mesenchymal stem cells (MSCs). The concentration ranges selected for each drug and investigational agent were based upon clinically achievable concentrations if the clinical Cmax of the agent was known.
Compounds. The drugs and investigational agents: novobiocin (NSC847541), ART-558 (NSC835418), RP-6685 (NSC848927), peposertib (NSC802822), ceralasertib (NSC780249), elimusertib (NSC800525), camonsertib (NSC841442), AZD-1390 (NSC803789), olaparib (NSC753686), talazoparib (NSC767125), rucaparib (NSC756644), sotorasib (NSC818433), MRTX-1133 (NSC836407), SN-38 (NSC673596), topotecan (NSC609699), epotoside (NSC141540), doxorubicin (NSC123127), gemcitabine (NSC613327), 5-fluorouracil (NSC19893), paclitaxel (NSC125973), vemurafenib (NSC761431), MSA-2 (NSC828583), SN-011 (NSC837082), adavosertib (NSC754352), prexasertib (NSC758257), carboplatin (NSC241240) and oxaliplatin (NSC266046), were obtained from the National Cancer Institute (NCI) Developmental Therapeutics Program Chemical Repository (21). The FDA-approved anticancer drug set is available from the Developmental Therapeutics Program at https://dtp.cancer.gov/organization/dscb/obtaining/. […] The stock solutions were prepared in dimethyl sulfoxide (DMSO, Sigma-Aldrich, St. Louis, MO, cat. D2650), except for the platinum compounds which were prepared in saline (Quality Biological, Gaithersburg, MD, cat. 114-055-101), at 800-fold the tested concentration and stored at -70 degrees C prior to their use. All drugs and investigational agents were tested over a range starting from a high concentration at or near the clinical Cmax and decreasing in half-log increments. If the clinical Cmax for an agent had not been determined, the highest concentration tested was 10 microM, except for SN-38, which was tested at a high concentration of 1 microM.
Cell Culture. All cells were maintained in an incubator at 37 degrees C and 5% CO2 with 95% humidity. The PDC lines were cultured according to standard operating procedures established by the NCI PDMR (https://pdmr.cancer.gov). Table 3 of the manuscript, lists the cell lines along with the number of the three cell types plated to form the mct-spheroids and media for tumor cell growth. After thawing, all PDC lines, except 997537-175-T-J1-PDC and 415267-285-R-J2-PDC, were cultured in Matrigel-coated flasks prepared with a working solution of 1X Ham's F-12 nutrient mix, without supplementation (Thermo Fisher Scientific, cat. 11765054), 100 U/mL penicillin-streptomycin (Thermo Fisher Scientific, cat. 15140122), and 2.5% Matrigel (Corning Inc., Corning, NY, cat. 354248) for the first three passages. The two PDC lines 997537-175-T-J1-PDC and 415267-285-R-J2-PDC were cultured on uncoated flasks. The 857933-349-R-J2-PDC line was cultured in 6C/Colon 1B media containing advanced DMEM/F-12 (Thermo Fisher Scientific, cat. 12634028), 10 mM HEPES (Thermo Fisher Scientific, cat. 15630080), 1X GlutaMAX supplement (Thermo Fisher Scientific, cat. 35050061), 0.1 mg/mL primocin (InvivoGen, San Diego, CA, cat. ant-pm-2), 10% defined fetal bovine serum, heat inactivated (HyClone Laboratories Inc., Logan, UT, cat. SH30070.03HI), 50% L-WRN conditioned media (ATCC, cat. CRL-3276), 1.25 mM N-Acetyl-L-cysteine (Sigma-Aldrich, cat. A9165), 10 mM nicotinamide (Sigma-Aldrich, cat. N0636), 1X B-27 supplement (Thermo Fisher Scientific, cat. 17504044), 1X N-2 supplement (Thermo Fisher Scientific, cat. […]

[1] = second compound 0.0316 µM, first compound 0.0316 µM
[2] = second compound 0.0316 µM, first compound 0.1 µM
[3] = second compound 0.0316 µM, first compound 0.316 µM
[4] = second compound 0.0316 µM, first compound 1 µM
[5] = second compound 0.0316 µM, first compound 3.16 µM
[6] = second compound 0.0316 µM, first compound 10 µM
[7] = second compound 0.1 µM, first compound 0.0316 µM
[8] = second compound 0.1 µM, first compound 0.1 µM
[9] = second compound 0.1 µM, first compound 0.316 µM
[10] = second compound 0.1 µM, first compound 1 µM
[11] = second compound 0.1 µM, first compound 3.16 µM
[12] = second compound 0.1 µM, first compound 10 µM
[13] = second compound 0.316 µM, first compound 0.0316 µM
[14] = second compound 0.316 µM, first compound 0.1 µM
[15] = second compound 0.316 µM, first compound 0.316 µM
[16] = second compound 0.316 µM, first compound 1 µM
[17] = second compound 0.316 µM, first compound 3.16 µM
[18] = second compound 0.316 µM, first compound 10 µM
[19] = second compound 1 µM, first compound 0.0316 µM
[20] = second compound 1 µM, first compound 0.1 µM
[21] = second compound 1 µM, first compound 0.316 µM
[22] = second compound 1 µM, first compound 1 µM
[23] = second compound 1 µM, first compound 3.16 µM
[24] = second compound 1 µM, first compound 10 µM
[25] = second compound 3.16 µM, first compound 0.0316 µM
[26] = second compound 3.16 µM, first compound 0.1 µM
[27] = second compound 3.16 µM, first compound 0.316 µM
[28] = second compound 3.16 µM, first compound 1 µM
[29] = second compound 3.16 µM, first compound 3.16 µM
[30] = second compound 3.16 µM, first compound 10 µM
[31] = second compound 10 µM, first compound 0.0316 µM
[32] = second compound 10 µM, first compound 0.1 µM
[33] = second compound 10 µM, first compound 0.316 µM
[34] = second compound 10 µM, first compound 1 µM
[35] = second compound 10 µM, first compound 3.16 µM
[36] = second compound 10 µM, first compound 10 µM
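Also: spheroids exposed to drugs for seven days before measurement.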
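For viability, T/C in this document: percent viability relative to DMSO vehicle control wells taken as 100%.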

## C=CC(=O)N1CCN(c2nc(=O)n(-c3c(C)ccnc3C(C)C)c3nc(-c4c(O)cccc4F)c(F)cc23)C(C)C1 (stereo unspecified) + Cc1cccc(N(C)C(=O)C2C(O)CCN2c2nc(C)cc(C(F)(F)F)c2C#N)c1
Second compound 0.0316 µM
  IC50: > 10000 nM
Second compound 0.1 µM
  IC50: > 10000 nM
Second compound 0.316 µM
  IC50: > 10000 nM
Second compound 1 µM
  IC50: > 10000 nM
Second compound 3.16 µM
  IC50: > 10000 nM
Second compound 10 µM
  IC50: > 10000 nM
[1]
  viability, T/C: 100%
[2]
  viability, T/C: 99.5%
[3]
  viability, T/C: 98.7%
[4]
  viability, T/C: 115%
[5]
  viability, T/C: 106%
[6]
  viability, T/C: 109%
[7]
  viability, T/C: 96.9%
[8]
  viability, T/C: 101%
[9]
  viability, T/C: 107%
[10]
  viability, T/C: 107%
[11]
  viability, T/C: 110%
[12]
  viability, T/C: 115%
[13]
  viability, T/C: 101%
[14]
  viability, T/C: 107%
[15]
  viability, T/C: 108%
[16]
  viability, T/C: 106%
[17]
  viability, T/C: 108%
[18]
  viability, T/C: 111%
[19]
  viability, T/C: 108%
[20]
  viability, T/C: 102%
[21]
  viability, T/C: 115%
[22]
  viability, T/C: 105%
[23]
  viability, T/C: 110%
[24]
  viability, T/C: 110%
[25]
  viability, T/C: 107%
[26]
  viability, T/C: 111%
[27]
  viability, T/C: 103%
[28]
  viability, T/C: 118%
[29]
  viability, T/C: 112%
[30]
  viability, T/C: 108%
[31]
  viability, T/C: 115%
[32]
  viability, T/C: 102%
[33]
  viability, T/C: 109%
[34]
  viability, T/C: 113%
[35]
  viability, T/C: 111%
[36]
  viability, T/C: 109%

## C=CCn1c(=O)c2cnc(Nc3ccc(N4CCN(C)CC4)cc3)nc2n1-c1cccc(C(C)(C)O)n1 + Cc1cccc(N(C)C(=O)C2C(O)CCN2c2nc(C)cc(C(F)(F)F)c2C#N)c1
Second compound 0.0316 µM
  IC50: 470 nM
Second compound 0.1 µM
  IC50: 464 nM
Second compound 0.316 µM
  IC50: 449 nM
Second compound 1 µM
  IC50: 481 nM
Second compound 3.16 µM
  IC50: 479 nM
Second compound 10 µM
  IC50: 452 nM
Second compound 0.0316 µM, first compound 0.00316 µM
  viability, T/C: 109%
Second compound 0.0316 µM, first compound 0.01 µM
  viability, T/C: 103%
[1]
  viability, T/C: 105%
[2]
  viability, T/C: 106%
[3]
  viability, T/C: 71.5%
[4]
  viability, T/C: 9.25%
Second compound 0.1 µM, first compound 0.00316 µM
  viability, T/C: 98%
Second compound 0.1 µM, first compound 0.01 µM
  viability, T/C: 104%
[7]
  viability, T/C: 102%
[8]
  viability, T/C: 108%
[9]
  viability, T/C: 70.7%
[10]
  viability, T/C: 8.44%
Second compound 0.316 µM, first compound 0.00316 µM
  viability, T/C: 96.6%
Second compound 0.316 µM, first compound 0.01 µM
  viability, T/C: 98.9%
[13]
  viability, T/C: 103%
[14]
  viability, T/C: 103%
[15]
  viability, T/C: 68.4%
[16]
  viability, T/C: 7.81%
Second compound 1 µM, first compound 0.00316 µM
  viability, T/C: 113%
Second compound 1 µM, first compound 0.01 µM
  viability, T/C: 97.3%
[19]
  viability, T/C: 104%
[20]
  viability, T/C: 110%
[21]
  viability, T/C: 74.1%
[22]
  viability, T/C: 7.99%
Second compound 3.16 µM, first compound 0.00316 µM
  viability, T/C: 112%
Second compound 3.16 µM, first compound 0.01 µM
  viability, T/C: 106%
[25]
  viability, T/C: 99.7%
[26]
  viability, T/C: 102%
[27]
  viability, T/C: 72.8%
[28]
  viability, T/C: 9.03%
Second compound 10 µM, first compound 0.00316 µM
  viability, T/C: 105%
Second compound 10 µM, first compound 0.01 µM
  viability, T/C: 105%
[31]
  viability, T/C: 97%
[32]
  viability, T/C: 98.8%
[33]
  viability, T/C: 68.5%
[34]
  viability, T/C: 8.81%

## CC1COCCN1c1cc(-c2ccnn2C)c2ccnc(-c3ccn[nH]3)c2n1 (stereo unspecified) + Cc1cccc(N(C)C(=O)C2C(O)CCN2c2nc(C)cc(C(F)(F)F)c2C#N)c1
Second compound 0.0316 µM
  IC50: 207 nM
Second compound 0.1 µM
  IC50: 202 nM
Second compound 0.316 µM
  IC50: 198 nM
Second compound 1 µM
  IC50: 195 nM
Second compound 3.16 µM
  IC50: 192 nM
Second compound 10 µM
  IC50: 181 nM
[1]
  viability, T/C: 95.3%
[2]
  viability, T/C: 73.4%
[3]
  viability, T/C: 37%
[4]
  viability, T/C: 21.7%
[5]
  viability, T/C: 22.3%
[6]
  viability, T/C: 25.4%
[7]
  viability, T/C: 92.6%
[8]
  viability, T/C: 74.4%
[9]
  viability, T/C: 35%
[10]
  viability, T/C: 20.8%
[11]
  viability, T/C: 21.3%
[12]
  viability, T/C: 27.8%
[13]
  viability, T/C: 97.2%
[14]
  viability, T/C: 73.3%
[15]
  viability, T/C: 34.5%
[16]
  viability, T/C: 20%
[17]
  viability, T/C: 20.1%
[18]
  viability, T/C: 25%
[19]
  viability, T/C: 105%
[20]
  viability, T/C: 71.7%
[21]
  viability, T/C: 35.3%
[22]
  viability, T/C: 21.3%
[23]
  viability, T/C: 22%
[24]
  viability, T/C: 25.4%
[25]
  viability, T/C: 113%
[26]
  viability, T/C: 71.8%
[27]
  viability, T/C: 34.1%
[28]
  viability, T/C: 21.7%
[29]
  viability, T/C: 21.8%
[30]
  viability, T/C: 26.4%
[31]
  viability, T/C: 97.9%
[32]
  viability, T/C: 67.7%
[33]
  viability, T/C: 34.2%
[34]
  viability, T/C: 19.5%
[35]
  viability, T/C: 24.4%
[36]
  viability, T/C: 23.1%
